Patent US8551937B2, “Peptide having an extending action for half-life of object peptide in plasma” (priority 2008, dated 2013)
Where a SMILES comes first, the peptide text is derived from it. Bridges are numbered along the chain shown (N, C = ends).

How the values were obtained:
[1] = biological target: T1, neutral endopeptidase (NEP) (Homo sapiens, UniProt P08473); assay: Resistance to peptidase: stability to hNEP (HPLC residual rate); format: in vitro ADME; conditions: human, isolated enzyme neprilysin, pH 6.5
T1 construct: purchased R&D Systems, Inc., U.S.A
Procedure: The experiment was conducted in N=2 for each sample. Native CNP-22, chimeric CNP (A, B) (structure mentioned already; final concentration: 0.5 μg/mL) and 100 μL of reaction solution (medium: 20 mM MES, pH 6.5) of human type recombinant neutral endopeptidase (hNEP, manufactured by R&D Systems, Inc., U.S.A.) were prepared. […] Distilled water (100 μL) was added to the sample after boiling followed by well mixing and 50 μL thereof was analyzed in a water-acetonitrile system using a high-performance liquid chromatography system LC-10A (manufactured by Shimadzu). The analytical data were analyzed by a Chromato-Pack (CRA-10A, manufactured by Shimadzu) and area of the peak zone of unchanged substance was calculated. The area of average zone of unchanged substance when made to react at 37° C. was divided by the area of average zone of the boiled sample to calculate the residual rate of the unchanged substance after 1 hour.

[2] = CNP immunoreactivity concentration in plasma after administration to rats (competitive RIA), pharmacokinetic parameters (Example 2); format: in vivo, rat; conditions: rat, plasma, 0.1 mg/kg, male rats, N = 3, mean ± SD; for half-life: read-out: T½; for C0: extrapolated value
Procedure: Pharmacokinetic parameters were calculated from the resulting changes in immunoreactivity concentrations in plasma. At that time, WinNonlin Professional Ver. 4.0.1 (manufactured by Pharsight Corporation, U.S.A.) was used as the analytical software. Method for the calculation of each parameter is mentioned as follows.
Concentration at time 0 (C0; extrapolated value, ng/mL), area under the curve for concentration in plasma vs. time (AUC; ng.min/mL) and quenching half-life (T½; minute(s)) were calculated as follows. C0 was calculated as a value at time by means of extrapolation from the changes in immunoreactivity concentration in plasma at each blood collection period. AUC was calculated by a trapezoidal method using the immunoreactivity concentrations in plasma at all measuring points (t) and an extrapolated value until the infinitive time was determined. T½ was calculated by means of a least-squares method from the inclination of a straight line connecting several points in a disappearing phase of the immunoreactivity concentration in plasma. In the case of a subcutaneous administration, C0 was not determined but the maximum concentration in plasma (Cmax; ng/mL) and the time reaching the maximum concentration in plasma (Tmax; min) were determined.
Changes in CNP immunoreactivity concentration in plasma of native CNP-22 and chimeric peptide (chimeric CNP) where a half-life-extension peptide was added to CNP were investigated.
The experiment was conducted in the same manner as in Example 1 that rats where polyethylene tube was previously inserted into thigh artery were used under an anesthetizing condition with Nembutal and male SD strain rats of 7 weeks age (purchased from Nippon Charles River) were used where one group comprised 3 rats. […] At that time, a rabbit polyclonal antibody (#2) recognizing a ring part of native CNP-22 was used as an antibody and ^125I-[Tyr^0] CNP was used as a labeling compound. Pharmacokinetic analysis was carried out by the same method as in Example 1.

NEP = biological target: T2, NEP (Rattus norvegicus, UniProt P07861); assay: NEP resistance in vivo: influence of NEP inhibitor on pharmacokinetic parameters after intravenous administration; conditions: rat, in vivo
T2 construct: male SD strain rats of 7 weeks age (Nippon Charles River; body weight: ca. 250 g) were used; from tissue; host or cells: whole animal: male SD rats (Nippon Charles River), in vivo
T2 sequence (P07861 1-750): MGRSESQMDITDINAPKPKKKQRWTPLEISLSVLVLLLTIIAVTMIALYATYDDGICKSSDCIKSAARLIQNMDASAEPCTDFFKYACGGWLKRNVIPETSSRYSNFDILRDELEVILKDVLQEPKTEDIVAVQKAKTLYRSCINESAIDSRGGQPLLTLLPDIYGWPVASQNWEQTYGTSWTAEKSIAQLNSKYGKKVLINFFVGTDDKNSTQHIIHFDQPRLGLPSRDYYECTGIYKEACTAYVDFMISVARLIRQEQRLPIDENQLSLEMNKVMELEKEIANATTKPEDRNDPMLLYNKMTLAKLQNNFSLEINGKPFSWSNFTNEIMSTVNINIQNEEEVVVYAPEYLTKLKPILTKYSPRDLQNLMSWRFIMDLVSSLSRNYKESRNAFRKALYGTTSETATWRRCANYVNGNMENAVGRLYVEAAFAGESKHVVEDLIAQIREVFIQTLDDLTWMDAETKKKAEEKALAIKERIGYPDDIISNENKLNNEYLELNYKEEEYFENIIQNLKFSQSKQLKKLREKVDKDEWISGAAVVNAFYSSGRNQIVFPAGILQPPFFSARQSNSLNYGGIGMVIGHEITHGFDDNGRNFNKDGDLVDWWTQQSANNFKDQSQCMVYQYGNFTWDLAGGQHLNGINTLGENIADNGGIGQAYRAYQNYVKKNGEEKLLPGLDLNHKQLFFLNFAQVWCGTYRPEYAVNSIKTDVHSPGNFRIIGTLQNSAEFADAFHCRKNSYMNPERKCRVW
Procedure: Further, NEP resistance in vivo of the native CNP-22 and chimeric CNP (B) was evaluated using the effect by the joint use with an NEP inhibitor affecting on changes in CNP immunoreactivity concentration in plasma after the intravenous administration as an index. This test was also carried out using rats into which a polyethylene tube (PE-50, manufactured by Clay […].) was inserted into thigh artery for collection of blood and rats into which a polyethylene tube (PE-10, manufactured by Clay […].) was inserted into thigh vein for administration of an NEP inhibitor under an anesthetizing condition using Nembutal. As a test system, male SD strain rats of 7 weeks age (Nippon Charles River; body weight: ca. 250 g) were used for the experiment where one group comprised 3 rats. […] Time for the administration was from 10 minutes before the administration of the native CNP-22 or the chimeric CNP (B) to completion of blood collection which was 60 minutes after the administration. The native CNP-22 and the chimeric CNP (B) each was administered into the tail vein in a dose of 20 μg/kg and the blood before starting the administration of NEP inhibitor (-10 minutes), before the administration of CNP (0 minute) and until after 60 minutes from the administration was collected by a thigh artery cannula. After a stabilizer and an anticoagulant were added to the collected blood, it was centrifuged to give plasma and the immunoreactivity concentration in the plasma was measured by the above-mentioned competitive RIA. The pharmacokinetic analysis was carried out by the same method as in Example 1.

in vivo = conditions: male, SD, rat, iv, 20 nmol/kg

T1 sequence (P08473 whole entry): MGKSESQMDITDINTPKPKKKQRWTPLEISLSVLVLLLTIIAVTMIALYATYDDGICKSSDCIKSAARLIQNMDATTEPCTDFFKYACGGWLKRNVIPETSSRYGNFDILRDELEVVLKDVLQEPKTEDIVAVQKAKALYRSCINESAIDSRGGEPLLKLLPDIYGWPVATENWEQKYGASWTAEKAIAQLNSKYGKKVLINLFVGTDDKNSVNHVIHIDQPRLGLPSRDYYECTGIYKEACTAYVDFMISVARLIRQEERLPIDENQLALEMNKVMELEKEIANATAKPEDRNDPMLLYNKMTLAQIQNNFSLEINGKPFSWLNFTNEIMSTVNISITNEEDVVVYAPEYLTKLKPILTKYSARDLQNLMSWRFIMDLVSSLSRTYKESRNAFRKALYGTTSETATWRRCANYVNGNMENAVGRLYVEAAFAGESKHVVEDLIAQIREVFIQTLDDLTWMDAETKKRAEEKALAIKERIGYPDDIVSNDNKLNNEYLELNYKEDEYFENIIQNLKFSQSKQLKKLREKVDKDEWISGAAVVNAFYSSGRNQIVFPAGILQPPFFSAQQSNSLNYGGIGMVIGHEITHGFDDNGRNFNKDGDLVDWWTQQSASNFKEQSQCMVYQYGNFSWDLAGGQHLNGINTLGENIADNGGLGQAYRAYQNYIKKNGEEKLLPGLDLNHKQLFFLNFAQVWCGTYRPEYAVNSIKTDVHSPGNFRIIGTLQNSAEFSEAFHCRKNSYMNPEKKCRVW

SMILES	remaining at 1 h, 0.5 μg/mL [1] [%]	AUC(0-inf) ([2]; sc, subcutaneous) [ng·h/mL]	Cmax ([2]; sc, subcutaneous) [ng/mL]	Tmax ([2]; sc, subcutaneous) [min]	half-life ([2]; sc, subcutaneous) [min]	AUC(0-inf) ([2]; intravenous) [ng·h/mL]	C0 ([2]; intravenous) [ng/mL]	half-life ([2]; intravenous) [min]	AUC0→∞ (NEP; male, SD, iv, 0.02 mg/kg) [ng·min/mL]	C0 (NEP; male, SD, iv, 0.02 mg/kg) [ng/mL]	T½ (NEP; male, SD, iv, 0.02 mg/kg) [min]	AUC(0-inf) (NEP; male, SD, iv, 0.02 mg/kg, AUC0→∞) [ng·h/mL]	C0 (NEP; male, SD, iv, 0.02 mg/kg, C0) [ng/mL]	half-life (NEP; male, SD, iv, 0.02 mg/kg, T½) [min]	decomposition by NEP in the body of the rat (NEP)	half-life (in vivo) [min]
CC[C@H](C)[C@@H]1NC(=O)[C@H](CCCNC(=N)N)NC(=O)[C@H](CC(=O)O)NC(=O)[C@H](CC(C)C)NC(=O)[C@H](CCCCN)NC(=O)[C@H](CC(C)C)NC(=O)CNC(=O)[C@H](Cc2ccccc2)NC(=O)[C@@H](NC(=O)[C@@H](NC(=O)[C@H](CCC(N)=O)NC(=O)[C@H](CCC(N)=O)NC(=O)[C@H](CCCNC(=N)N)NC(=O)[C@H](CCCCN)NC(=O)[C@H](CCC(=O)O)NC(=O)[C@H](CO)NC(=O)[C@H](CCCCN)NC(=O)[C@H](CCCCN)NC(=O)[C@@H]2CCCN2C(=O)[C@@H]2CCCN2C(=O)[C@H](C)NC(=O)[C@H](CCCCN)NC(=O)[C@H](CC(C)C)NC(=O)[C@H](CCC(N)=O)NC(=O)[C@@H]2CCCN2C(=O)[C@@H](N)CCCNC(=N)N)C(C)C)CSSC[C@@H](C(=O)O)NC(=O)CNC(=O)[C@H](CC(C)C)NC(=O)CNC(=O)[C@H](CO)NC(=O)[C@H](CCSC)NC(=O)[C@H](CO)NC(=O)CNC1=O [Chimeric CNP (A)] (H-RPQLKAPPKKSEKRQQVCFGLKLDRIGSMSGLGC-OH; disulfide 18-34; N-terminus and C-terminus assumed)	84.3	24.9	27.9 ± 2.7	13.3	20.7 ± 7.5	107	1030 ± 358	21.7 ± 6.1								
CC[C@H](C)[C@@H]1NC(=O)[C@H](CCCNC(=N)N)NC(=O)[C@H](CC(=O)O)NC(=O)[C@H](CC(C)C)NC(=O)[C@H](CCCCN)NC(=O)[C@H](CC(C)C)NC(=O)CNC(=O)[C@H](Cc2ccccc2)NC(=O)[C@@H](N)CSSC[C@@H](C(=O)N[C@H](C(=O)N[C@@H](CCC(N)=O)C(=O)N[C@@H](CCC(N)=O)C(=O)N[C@@H](CCCNC(=N)N)C(=O)N[C@@H](CCCCN)C(=O)N[C@@H](CCC(=O)O)C(=O)N[C@@H](CO)C(=O)N[C@@H](CCCCN)C(=O)N[C@@H](CCCCN)C(=O)N2CCC[C@H]2C(=O)N2CCC[C@H]2C(=O)N[C@@H](C)C(=O)N[C@@H](CCCCN)C(=O)N[C@@H](CC(C)C)C(=O)N[C@@H](CCC(N)=O)C(=O)N2CCC[C@H]2C(=O)N[C@@H](CCCNC(=N)N)C(=O)O)C(C)C)NC(=O)CNC(=O)[C@H](CC(C)C)NC(=O)CNC(=O)[C@H](CO)NC(=O)[C@H](CCSC)NC(=O)[C@H](CO)NC(=O)CNC1=O [Chimeric CNP (B)] (H-CFGLKLDRIGSMSGLGCVQQRKESKKPPAKLQPR-OH; disulfide 1-17; N-terminus and C-terminus assumed)	83.8	28.1	32.8 ± 7.9	10	24 ± 9.7	153	1470 ± 749	36.2 ± 2.3	1342 ± 168	203 ± 71	12.7 ± 1.2	24.5	253 ± 15	14.9 ± 3.1	hardly decomposed by NEP	
CC[C@H](C)[C@@H]1NC(=O)[C@H](CCCNC(=N)N)NC(=O)[C@H](CC(=O)O)NC(=O)[C@H](CC(C)C)NC(=O)[C@H](CCCCN)NC(=O)[C@H](CC(C)C)NC(=O)CNC(=O)[C@H](Cc2ccccc2)NC(=O)[C@@H](NC(=O)CNC(=O)[C@H](CCCCN)NC(=O)[C@H](CO)NC(=O)[C@H](CC(C)C)NC(=O)CN)CSSC[C@@H](C(=O)N[C@H](C(=O)N[C@@H](CCC(N)=O)C(=O)N[C@@H](CCC(N)=O)C(=O)N[C@@H](CCCNC(=N)N)C(=O)N[C@@H](CCCCN)C(=O)N[C@@H](CC(=O)O)C(=O)N[C@@H](CO)C(=O)N[C@@H](CCCCN)C(=O)N[C@@H](CCCCN)C(=O)N2CCC[C@H]2C(=O)N2CCC[C@H]2C(=O)N[C@@H](C)C(=O)N[C@@H](CCCCN)C(=O)N[C@@H](CC(C)C)C(=O)N[C@@H](CCC(N)=O)C(=O)N2CCC[C@H]2C(=O)N[C@@H](CCCNC(=N)N)C(=O)O)C(C)C)NC(=O)CNC(=O)[C@H](CC(C)C)NC(=O)CNC(=O)[C@H](CO)NC(=O)[C@H](CCSC)NC(=O)[C@H](CO)NC(=O)CNC1=O [Chimeric CNP (J)] (H-GLSKGCFGLKLDRIGSMSGLGCVQQRKDSKKPPAKLQPR-OH; disulfide 6-22; N-terminus and C-terminus assumed)																31.2
CC[C@H](C)[C@@H]1NC(=O)[C@H](CCCNC(=N)N)NC(=O)[C@H](CC(=O)O)NC(=O)[C@H](CC(C)C)NC(=O)[C@H](CCCCN)NC(=O)[C@H](CC(C)C)NC(=O)CNC(=O)[C@H](Cc2ccccc2)NC(=O)[C@@H](N)CSSC[C@@H](C(=O)N[C@@H](C)C(=O)NCC(=O)N[C@@H](CO)C(=O)N[C@H](C(=O)N[C@@H](CC(=O)O)C(=O)N[C@@H](Cc2c[nH]cn2)C(=O)N[C@@H](CCCCN)C(=O)NCC(=O)N[C@@H](CCCCN)C(=O)N[C@@H](CCC(N)=O)C(=O)N[C@@H](CCCNC(=N)N)C(=O)N[C@@H](CCCCN)C(=O)N[C@H](C(=O)N[C@H](C(=O)N[C@@H](CC(=O)O)C(=O)N[C@@H](Cc2c[nH]cn2)C(=O)N2CCC[C@H]2C(=O)N[C@@H](CCCCN)C(=O)N[C@@H](CCCNC(=N)N)C(=O)O)C(C)C)C(C)C)C(C)C)NC(=O)CNC(=O)[C@H](CC(C)C)NC(=O)CNC(=O)[C@H](CO)NC(=O)[C@H](CCSC)NC(=O)[C@H](CO)NC(=O)CNC1=O [Chimeric CNP (K)] (H-CFGLKLDRIGSMSGLGCAGSVDHKGKQRKVVDHPKR-OH; disulfide 1-17; N-terminus and C-terminus assumed)																18
